Test results published in patent US10597388B2, “Pyridazinone herbicides” (FMC CORPORATION, priority 2014, dated 2020).

Assays:
Assay in all cases: Test D controlled growth environment herbicide test, pre- and postemergence
Format in all cases: in vivo
[1] = test system: radish, wild (wild radish, Raphanus raphanistrum)
How it was run: (§1)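 Rating is visual, 0–100 scale (100 = complete control), made against untreated plants 14–21 d after treatment in controlled growth conditions. Postemergence sprays went onto 1- to 4-leaf plants in peat medium; preemergence sprays onto silt loam after sowing; formulation included a surfactant.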

[2] = test system: buckwheat, wild (wild buckwheat, Polygonum convolvulus)
How it was run: as §1

[3] = test system: field poppy (Papaver rhoeas)
How it was run: as §1

[4] = test system: barley, spring (spring barley, Hordeum vulgare)
How it was run: as §1

[5] = test system: bluegrass (annual bluegrass, Poa annua)
How it was run: as §1

[6] = test system: oilseed rape (Brassica napus)
How it was run: as §1

[7] = test system: speedwell (bird's-eye speedwell, Veronica persica)
How it was run: as §1

[8] = test system: oat, wild (wild oat, Avena fatua)
How it was run: as §1

[9] = test system: pigweed (Amaranthus retroflexus)
How it was run: as §1

[10] = test system: chamomile (scentless chamomile, Matricaria inodora)
How it was run: as §1

[11] = test system: barley, winter (winter barley, Hordeum vulgare)
How it was run: as §1

[12] = test system: galium (catchweed bedstraw, Galium aparine)
How it was run: as §1

[13] = test system: mustard, wild (wild mustard, Sinapis arvensis)
How it was run: as §1

[14] = Postemergence, 31 g ai/ha, scale 0 to 100 (0 no effect, 100 complete control)
[15] = Postemergence, 125 g ai/ha, visual rating on scale 0 (no effect) to 100 (complete control), 14 to 21 d
[16] = Postemergence, 250 g ai/ha, scale 0 to 100 (0 no effect, 100 complete control)
[17] = Preemergence, 62 g ai/ha, scale 0 to 100 (0 no effect, 100 complete control)
[18] = Preemergence, 125 g ai/ha, scale 0 to 100 (0 no effect, 100 complete control)
[19] = Preemergence, 250 g ai/ha, scale 0 to 100 (0 no effect, 100 complete control)
[20] = postemergence, 62 g ai/ha, scale 0 to 100, 0 no effect, 100 complete control

## CC(=O)Oc1c(C)nn(C)c(=O)c1-c1c(C)sc2ccc(C)cc12 [Compound 25]
[1]; [14]
  Radish, Wild plant response rating: 15
[1]; [15]
  Plant response rating, Radish, Wild: 65
[1]; [16]
  Plant response rating, Radish, Wild: 75
[1]; Preemergence, 31 g ai/ha
  Plant response rating (scale of 0 to 100), Radish, Wild: 0
[1]; [17]
  Plant response rating, Radish, Wild: 0
[1]; [18]
  Plant response rating, Radish, Wild: 0
[1]; [19]
  Plant response rating, Radish, Wild: 0
[1]; [20]
  Plant response rating, Radish, Wild: 35
[2]; [14]
  Buckwheat, Wild plant response rating: 80
[2]; [15]
  Plant response rating, Buckwheat, Wild: 100
[2]; [16]
  Plant response rating, Buckwheat, Wild: 100
[2]; Preemergence, 31 g ai/ha
  Plant response rating (scale of 0 to 100), Buckwheat, Wild: 0
[2]; [17]
  Plant response rating, Buckwheat, Wild: 0
[2]; [18]
  Plant response rating, Buckwheat, Wild: 20
[2]; [19]
  Plant response rating, Buckwheat, Wild: 25
[2]; [20]
  Plant response rating, Buckwheat, Wild: 100
[3]; [14]
  Field Poppy plant response rating: 70
[3]; [15]
  Plant response rating, Field Poppy: 100
[3]; [16]
  Plant response rating, Field Poppy: 100
[3]; Preemergence, 31 g ai/ha
  Plant response rating (scale of 0 to 100), Field Poppy: 95
[3]; [17]
  Plant response rating, Field Poppy: 100
[3]; [18]
  Plant response rating, Field Poppy: 100
[3]; [19]
  Plant response rating, Field Poppy: 100
[3]; [20]
  Plant response rating, Field Poppy: 80
[4]; [14]
  Plant response rating, Barley, Spring: 0
[4]; [15]
  Plant response rating, Barley, Spring: 0
[4]; [16]
  Plant response rating, Barley, Spring: 10
[4]; Preemergence, 31 g ai/ha
  Plant response rating (scale of 0 to 100), Barley, Spring: 0
[4]; [17]
  Plant response rating, Barley, Spring: 0
[4]; [18]
  Plant response rating, Barley, Spring: 0
[4]; [19]
  Barley, Spring plant response rating: 0
[4]; [20]
  Plant response rating, Barley, Spring: 0
[5]; [14]
  Bluegrass plant response rating: 10
[5]; [15]
  Plant response rating, Bluegrass: 30
[5]; [16]
  Plant response rating, Bluegrass: 40
[5]; Preemergence, 31 g ai/ha
  Plant response rating (scale of 0 to 100), Bluegrass: 25
[5]; [17]
  Plant response rating, Bluegrass: 35
[5]; [18]
  Plant response rating, Bluegrass: 40
[5]; [19]
  Bluegrass plant response rating: 75
[5]; [20]
  Plant response rating, Bluegrass: 20
[6]; [14]
  Oilseed Rape plant response rating: 5
[6]; [15]
  Plant response rating, Oilseed Rape: 45
[6]; [16]
  Plant response rating, Oilseed Rape: 60
[6]; Preemergence, 31 g ai/ha
  Plant response rating (scale of 0 to 100), Oilseed Rape: 0
[6]; [17]
  Plant response rating, Oilseed Rape: 0
[6]; [18]
  Plant response rating, Oilseed Rape: 0
[6]; [19]
  Plant response rating, Oilseed Rape: 35
[6]; [20]
  Plant response rating, Oilseed Rape: 30
[7]; [14]
  Speedwell plant response rating: 10
[7]; [15]
  Plant response rating, Speedwell: 25
[7]; [16]
  Plant response rating, Speedwell: 80
[7]; Preemergence, 31 g ai/ha
  Plant response rating (scale of 0 to 100), Speedwell: 35
[7]; [17]
  Plant response rating, Speedwell: 80
[7]; [18]
  Plant response rating, Speedwell: 95
[7]; [19]
  Plant response rating, Speedwell: 100
[7]; [20]
  Plant response rating, Speedwell: 15
[8]; [14]
  Oat, Wild plant response rating: 75
[8]; [15]
  Plant response rating, Oat, Wild: 90
[8]; [16]
  Plant response rating, Oat, Wild: 90
[8]; Preemergence, 31 g ai/ha
  Plant response rating (scale of 0 to 100), Oat, Wild: 85
[8]; [17]
  Plant response rating, Oat, Wild: 90
[8]; [18]
  Plant response rating, Oat, Wild: 95
[8]; [19]
  Plant response rating, Oat, Wild: 100
[8]; [20]
  Plant response rating, Oat, Wild: 80
[9]; [14]
  Pigweed plant response rating: 80
[9]; [15]
  Plant response rating, Pigweed: 95
[9]; [16]
  Plant response rating, Pigweed: 100
[9]; Preemergence, 31 g ai/ha
  Plant response rating (scale of 0 to 100), Pigweed: 100
[9]; [17]
  Plant response rating, Pigweed: 100
[9]; [18]
  Plant response rating, Pigweed: 100
[9]; [19]
  Plant response rating, Pigweed: 100
[9]; [20]
  Plant response rating, Pigweed: 100
[10]; [14]
  Chamomile plant response rating: 75
[10]; [15]
  Plant response rating, Chamomile: 100
[10]; [16]
  Plant response rating, Chamomile: 100
[10]; Preemergence, 31 g ai/ha
  Plant response rating (scale of 0 to 100), Chamomile: 100
[10]; [17]
  Plant response rating, Chamomile: 100
[10]; [18]
  Plant response rating, Chamomile: 100
[10]; [19]
  Plant response rating, Chamomile: 95
[10]; [20]
  Plant response rating, Chamomile: 95
[11]; [14]
  Plant response rating, Barley, Winter: 0
[11]; [15]
  Plant response rating, Barley, Winter: 0
[11]; [16]
  Plant response rating, Barley, Winter: 10
[11]; Preemergence, 31 g ai/ha
  Plant response rating (scale of 0 to 100), Barley, Winter: 0
[11]; [17]
  Plant response rating, Barley, Winter: 0
[11]; [18]
  Plant response rating, Barley, Winter: 5
[11]; [19]
  Barley, Winter plant response rating: 20
[11]; [20]
  Plant response rating, Barley, Winter: 0
[12]; [14]
  Galium plant response rating: 100
[12]; [15]
  Plant response rating, Galium: 100
[12]; [16]
  Plant response rating, Galium: 100
[12]; Preemergence, 31 g ai/ha
  Plant response rating (scale of 0 to 100), Galium: 70
[12]; [17]
  Plant response rating, Galium: 90
[12]; [18]
  Plant response rating, Galium: 95
[12]; [19]
  Plant response rating, Galium: 100
[12]; [20]
  Plant response rating, Galium: 100
[13]; [14]
  Mustard, Wild plant response rating: 20
[13]; [15]
  Plant response rating, Mustard, Wild: 70
[13]; [16]
  Plant response rating, Mustard, Wild: 85
[13]; Preemergence, 31 g ai/ha
  Plant response rating (scale of 0 to 100), Mustard, Wild: 0
[13]; [17]
  Plant response rating, Mustard, Wild: 0
[13]; [18]
  Plant response rating, Mustard, Wild: 20
[13]; [19]
  Plant response rating, Mustard, Wild: 60
[13]; [20]
  Plant response rating, Mustard, Wild: 40
